Laboratory results taken from patent US8946266B2, “Substituted triazole and imidazole derivatives as gamma secretase modulators” (Janssen Pharmaceuticals, Inc., priority 2009, dated 2015).

How the values were obtained:
[1] = test system: Aβtotal; assay: γ-secretase-modulating activity, Method 1: Aβtotal sandwich ELISA in supernatant of SKNBE2 cells carrying APP 695-wild type; assay type: cell-based; conditions: Table 3a, 18 h, averaged IC50 values
Procedure: (§1) Pharmacology A) Screening of the Compounds of the Invention for γ-Secretase-Modulating Activity A1) Method 1
(§2) Screening was carried out using SKNBE2 cells carrying the APP 695-wild type, grown in Dulbecco's Modified Eagle's Medium/Nutrient mixture F-12 (DMEM/NUT-mix F-12) (HAM) provided by Gibco (cat no. 31330-38) containing 5% Serum/Fe supplemented with 1% non-essential amino acids. Cells were grown to near confluency.
(§3) The screening was performed using the assay as described in Citron et al (1997) Nature Medicine 3: 67. Briefly, cells were plated in a 96-well plate at about 10^5 cells/ml one day prior to addition of compounds. Compounds were added to the cells in Ultraculture (Lonza, BE12-725F) supplemented with 1% glutamine (Invitrogen, 25030-024) for 18 h. The media were assayed by two sandwich ELISAs, for Aβ42 and Aβtotal. Toxicity of the compounds was assayed by WST-1 cell proliferation reagent (Roche, 1 644 807) according to the manufacturer's protocol.
To quantify the amount of Aβtotal in the cell supernatant, samples and standards were added to a 6E10-coated plate. The plate was allowed to incubate overnight at 4° C. in order to allow formation of the antibody-amyloid complex. Following this incubation and subsequent wash steps a selective anti-Aβ-antibody conjugate (biotinylated 4G8) was added and incubated for a minimum of 1 h in order to allow formation of the antibody-Amyloid-antibody-complex. After incubation and appropriate wash steps, a Streptavidine-Peroxidase-Conjugate was added, followed 30 minutes later by an addition of Quanta Blu fluorogenic peroxidase substrate according to the manufacturer's instructions (Pierce Corp., Rockford, Ill.).

[2] = test system: Aβ42; assay: γ-secretase-modulating activity, Method 1: Aβ42 sandwich ELISA in supernatant of SKNBE2 cells carrying APP 695-wild type (Table 3a); assay type: cell-based; conditions: 18 h, averaged IC50 values
Procedure: as §1, §2, §3
To quantify the amount of Aβ42 in the cell supernatant, commercially available Enzyme-Linked-Immunosorbent-Assay (ELISA) kits were used (Innotest® β-Amyloid(1-42), Innogenetics N.V., Ghent, Belgium). The Aβ42 ELISA was performed essentially according to the manufacturer's protocol. Briefly, the standards (dilutions of synthetic Aβ1-42) were prepared in polypropylene Eppendorf with final concentrations of 8000 down to 3.9 pg/ml (1/2 dilution step). Samples, standards and blanks (100 μl) were added to the anti-Aβ42-coated plate supplied with the kit (the capture antibody selectively recognizes the C-terminal end of the antigen). The plate was allowed to incubate 3 h at 25° C. in order to allow formation of the antibody-amyloid complex. Following this incubation and subsequent wash steps a selective anti-Aβ-antibody conjugate (biotinylated 3D6) was added and incubated for a minimum of 1 hour (h) in order to allow formation of the antibody-Amyloid-antibody-complex. After incubation and appropriate wash steps, a Streptavidine-Peroxidase-Conjugate was added, followed 30 minutes later by an addition of 3,3′,5,5′-tetramethylbenzidine (TMB)/peroxide mixture, resulting in the conversion of the substrate into a coloured product. This reaction was stopped by the addition of sulfuric acid (0.9 N) and the colour intensity was measured by means of photometry with an ELISA-reader with a 450 nm filter.
To obtain the values reported in Table 3a, the data were calculated as percentage of the maximum amount of amyloid Beta 42 measured in the absence of the test compound. The sigmoidal dose response curves were analyzed using non-linear regression analysis with percentage of the control plotted against the log concentration of the compound. A 4-parameter equation was used to determine the IC50. The values reported in Table 3a are averaged IC50 values.

[3] = test system: Aβtotal; assay: In vivo efficacy, Method 1: brain soluble Aβtotal lowering 4 h after a single oral dose, ELISA (Table 4a); design: species or system mouse; conditions: dose 30 mg/kg oral dosing
Text: To determine whether acute administration of an Aβ42 lowering agent would reduce Aβ42 levels in vivo, non-transgenic rodents, e.g. mice or rats were used. Alternatively, two to three month old Tg2576 mice expressing APP695 containing the “Swedish” variant can be used or a transgenic mouse model developed by Dr. Fred Van Leuven (K.U. Leuven, Belgium) and co-workers, with neuron-specific expression of a clinical mutant of the human amyloid precursor protein [V717I] (Moechars et al., 1999 J. Biol. Chem. 274, 6483). Young transgenic mice have high levels of Aβ in the brain but no detectable Aβ deposition. At approximately 6-8 months of age, the transgenic mice start to display spontaneous, progressive accumulation of β-amyloid (Aβ) in the brain, eventually resulting in amyloid plaques within the subiculum, hippocampus and cortex. Animals treated with the Aβ42 lowering agent were examined and compared to those untreated or treated with vehicle and brain levels of soluble Aβ42 and total Aβ would be quantitated by standard techniques, for example, using ELISA. Treatment periods varied from hours (h) to days and were adjusted based on the results of the Aβ42 lowering once a time course of onset of effect could be established.
A typical protocol for measuring Aβ42 lowering in vivo is shown but it is only one of many variations that could be used to optimize the levels of detectable Aβ. For example, Aβ42 lowering compounds were formulated in 20% of Captisol® (a sulfobutyl ether of β-cyclodextrin) in water or 20% hydroxypropyl cyclodextrin. The Aβ42 lowering agents were administered as a single oral dose or by any acceptable route of administration to overnight fasted animals. After 4 h, the animals were sacrificed and Aβ42 levels were analysed.
Blood was collected by decapitation and exsanguinations in EDTA-treated collection tubes. Blood was centrifuged at 1900 g for 10 minutes (min) at 4° C. and the plasma recovered and flash frozen for later analysis. The brain was removed from the cranium and hindbrain. The cerebellum was removed and the left and right hemisphere were separated. The left hemisphere was stored at −18° C. for quantitative analysis of test compound levels. The right hemisphere was rinsed with phosphate-buffered saline (PBS) buffer and immediately frozen on dry ice and stored at −80° C. until homogenization for biochemical assays.
Mouse brains were resuspended in 10 volumes of 0.4% DEA (diethylamine)/50 mM NaCl pH 10 (for non-transgenic animals) or 0.1% 3-[(3-cholamidopropyl)-dimethyl-ammonio]-1-propanesulfonate (CHAPS) in tris buffered saline (TBS) (for transgenic animals) containing protease inhibitors (Roche-11873580001 or 04693159001) per gram of tissue, e.g. for 0.158 g brain, add 1.58 ml of 0.4% DEA. All samples were sonicated for 30 seconds on ice at 20% power output (pulse mode). Homogenates were centrifuged at 221.300×g for 50 min. The resulting high speed supernatants were then transferred to fresh tubes and were optionally further purified before the next step. A portion of the supernatant was neutralized with 10% 0.5 M Tris-HCl and this was used to quantify Aβtotal.
To quantify the amount of Aβ42 in the soluble fraction of the brain homogenates, commercially available Enzyme-Linked-Immunosorbent-Assay (ELISA) kits were used (e.g. Innotest® β-Amyloid(1-42), Innogenetics N.V., Ghent, Belgium). The Aβ42 ELISA was performed using the plate provided with the kit only. Briefly, the standards (a dilution of synthetic Aβ1-42) were prepared in 1.5 ml Eppendorf tube in Ultraculture, with final concentrations ranging from 25000 to 1.5 pg/ml. Samples, standards and blanks (60 μl) were added to the anti-Aβ42-coated plate (the capture antibody selectively recognizes the C-terminal end of the antigen). The plate was allowed to incubate overnight at 4° C. in order to allow formation of the antibody-amyloid complex. […]

| Structure (SMILES) | IC50 ([1]; Homo sapiens) [nM] | IC50 ([2]; Homo sapiens) [nM] | Aβtotal (% Ctrl) _Mean [3] [% Ctrl] | IC50 [1] [nM] | IC50 [2] [nM] |
| --- | --- | --- | --- | --- | --- |
| COc1cc(-c2nc(-c3ccccc3)n(C)n2)ccc1-n1cnc(C)c1 [Compound 9] | > 30000 | 790 | 0 |  |  |
| COc1cc(-c2nc(C)c(-c3ccccc3)[nH]2)ccc1-n1cnc(C)c1 [Compound 11] | > 3000 | 110 | −4 |  |  |
| COc1cc(-c2nc(Nc3ccc(F)cc3C(F)(F)F)n(C)n2)ccc1-n1cnc(C)c1 [Compound 15] |  |  | 3 | 11500 | 250 |
| COc1cc(-c2nc(Nc3cccc(C(F)(F)F)c3)n(C)n2)ccc1-n1cnc(C)c1 [Compound 146] |  |  | 14 |  |  |
